The values that follow are results of earlier work, collected in patent US20150147356A1, “ANTIPYRETICS TO ENHANCE TOLERABILITY OF VESICLE-BASED VACCINES” (priority 2011, published 2015).

Several values for one entry are separate records, joined by “and”; a condition that tells them apart may be missing. Identical values can stand only once.

The conditions of series [1]: in vivo.
For series [2] the following is noted: in vivo. This is another data set of the same source.

In the case of `CC(=O)Nc1ccc(O)cc1` [paracetamol, paracetamol (acetaminophen)], the Therapeutic blood level was 10-30 μg/ml and 66-199 μM. In series [1], the half-life entry is given as “about 3 hours”.

With `CC(C)Cc1ccc(C(C)C(=O)O)cc1` (stereo not shown) [Ibuprofen, ibuprofen], the Therapeutic blood level is 10-50 μg/ml and 49-243 μM. For the same compound, the duration of action result in series [2] is listed as “about 4 hours”.
